Where no end group is shown, it is not given here. The star is where a group is joined. For = O=C*

Two molecules from patent US20110124574A1, “RESTORATION OF ESTROGEN RECEPTOR-(ALPHA) ACTIVITY” (priority 2008, published 2011) can be followed below.

The test system of this assay is ERα. Kind of assay: ERα protein expression by Western blot in stimulated MDA-MB-231 cells. In kind it is cell-based, human. Particulars: stimulation 24 and 48 hours, rWnt-5a 0.6 μg/ml, rWnt-3a 0.1 μg/ml, peptides 100 μM. The procedure: Breast cancer cells were grown in 6 well plates, and stimulated with recombinant Wnt-5a protein (rW5a), the Wnt-5a derived Foxy-5 peptide (F5), recombinant Wnt-3a protein (rW3a), or a formylated random hexapeptide (Rdm) for 24 or 48 h. Following treatment cells were lysed and subjected to SDS-PAGE, transferred to nitrocellulose membranes and blotted for ERα expression. A: MDA-MB-231 cells stimulated with recombinant Wnt-5a, Foxy-5, Wnt-3a, Rdm. B: MDA-MB-468 cells stimulated with recombinant Wnt-5a or Foxy-5. C: 4T1 cells stimulated with recombinant Wnt-5a or Foxy-5. Positive controls (Pos) were included in order to confirm the correct band size for ERα. Two different positive controls were used: T47D cell lysates known to express ERα and MDA-MB-231 cells transiently transfected with a full length ERα plasmid, resulting in extremely high ERα expression (top row, right panel, third row, right panel).
Stimulation of cells was performed with recombinant Wnt-5a (0.6 μg/ml) and recombinant Wnt-3a (0.1 μg/ml and in a control experiment, 0.6 μg/ml) (R&D Systems Abington, UK) for times as indicated. The Wnt-5a derived formylated hexapeptide, Foxy-5 (formyl-MDGCEL) (SEQ. ID. NO. 1) designed in the laboratory of the inventors, and a formylated random hexapeptide (formyl-MSADVG) (SEQ: ID: NO: 16) were either synthesized by Pepscan Presto (Lelystad, The Netherlands) or Inbiolabs (Tallinn, Estonia). The peptides were purified by RP-HPLC and mass spectrometry, and the >95% pure peptides were synthesized three times. Cells were treated with Foxy-5 or random peptide at a concentration of 100 μM for times as indicated. All other chemicals if not otherwise stated were purchased from Sigma Chemicals (St. Louis, Mo.).
Cells were lysed in Triton lysis buffer (50 mM Tris (pH7.5), 1% Triton x-100, 140 mM NaCl, 0.5 mM EDTA, 0.5 MgCl2, 10 mM NaF) with the addition of fresh leupeptin (1 μg/ml), Pefabloc (2 mM), aprotinin (20 μg/ml) and Na3VO4 (4 mM). […] Scanning and densitometry was performed using a Bio-Rad (Hercules Calif.) GS-800 densitometer with Quantity One software. […]

For the molecule “For-MSADVG [formylated random hexapeptide, reference compound]”, the “levels of ERα protein” value is recorded as “Neither of these stimulations resulted in increased levels”.

B1: recombinant Wnt-3a: recombinant Wnt-3a protein (R&D Systems), specificity control (protein, UniProt P56704 19-352, looked up)
Protein Wnt-3a: SYPIWWSLAVGPQYSSLGSQPILCASIPGLVPKQLRFCRNYVEIMPSVAEGIKIGIQECQHQFRGRRWNCTTVHDSLAIFGPVLDKATRESAFVHAIASAGVAFAVTRSCAEGTAAICGCSSRHQGSPGKGWKWGGCSEDIEFGGMVSREFADARENRPDARSAMNRHNNEAGRQAIASHMHLKCKCHGLSGSCEVKTCWWSQPDFRAIGDFLKDKYDSASEMVVEKHRESRGWVETLRPRYTYFKVPTERDLVYYEASPNFCEPNPETGSFGTRDRTCNVSSHGIDGCDLLCCGRGHNARAERRREKCRCVFHWCCYVSCQECTRVYDVHTCK
For B1, the “levels of ERα protein” value is given as “Neither of these stimulations resulted in increased levels”.
